In patent publication US6083920A, “Compositions for modulating intracellular inositol trisphosphate concentration” (priority 1996, dated 2000):
pIC50: −log10 of the molar value.

Experiments:
[1] = system: bradykinin-stimulated phosphoinositide signalling in PC12 cells; test: Phosphoinositide hydrolysis assay (InsP3 production) in PC12 cells; format: cell-based, rat; settings: for sensitivity of PC12 cells to bradykinin: at relatively moderate levels
Text: PC12 cells, from a rat adrenal pheochromocytoma cell line, were used as a model of neurons from the peripheral nervous system. These cells were obtained from a common laboratory cell culture stock and grown in plastic culture flasks in Dulbecco's modified Eagle's medium (DMEM) supplemented with 5% heat-inactivated horse serum and 10% heat-inactivated fetal calf serum (PC12 cells are also available from the American Type Culture Collection under the Accession number CRL 1721). The cells were grown at 37° C. in 5% CO2 in air until a confluent monolayer formed. The cells were dispersed into 24-well plastic tissue culture plates at a density of 10^5 cells per well and used for the phosphoinositide hydrolysis assays (as described in EXAMPLE 2).
Receptor-stimulated and basal unstimulated hydrolysis of phosphoinositides was measured by the following procedure. In order to label the cellular phosphoinositides metabolically, the primary cultures of chick cortical neurons (described in Example 1) were incubated overnight with 0.5 ml Dulbecco's modified Eagle's medium containing 1 μCi [^3 H]myo-inositol per well. The cells were then washed twice with 1 ml Dulbecco's phosphate-buffered saline (PBS) and 0.5 ml of PBS containing 4.5 g/L glucose was added. Sphingosine, psychosine, lysosulphatide, or lysosphingomyelin, prepared as the hydrochloride salt dissolved in water, were then added to produce the desired extracellular concentration in specific wells, and the 24-well plates were swirled gently on a rotary shaker for 1 hr at 23° C. The cells were then washed twice with 1 ml PBS, and pre-incubated for 15 minutes at 37° C. with 0.5 ml PBS containing 10 mM LiCl and the compound to be tested was added. After 30 minutes, the experiment was terminated by adding 1 ml of ice-cold methanol to each well and transferring the material in each well to polypropylene tubes that contained 0.4 ml water and 1 ml chloroform. The tubes were vortexed thoroughly, then centrifuged at 500×g for 5 minutes to separate the aqueous and chloroform phases. For each sample, a 1.5-ml aliquot of the upper (aqueous) phase was applied to a small column containing BioRad AG1X8 resin (formate form). Free [^3 H]inositol and [^3 H]glycerophosphoinositol were washed through the column with 5 ml of a solution containing 5 mM sodium borate and 60 mM sodium formate. The total phosphorylated [^3 H] inositol fraction was eluted from the column for radiometric scintillation spectrometry analysis with 3 ml 1.0 M ammonium formate/0.1 M formic acid;
In addition, a 0.5 ml aliquot of the lower (chloroform) phase of each sample was analyzed radiometrically by scintillation spectrometry in order to determine the quantity of lipid-bound [^3 H]myo-inositol. Estimation of phosphoinositide hydrolysis by phospholipase C is based upon the quantity of [^3 H]inositol phosphates produced, and is expressed as the percentage of the latter relative to total free and componential [^3 H]inositol (dpm ammonium formate+dpm chloroform fractions).
PC12 cells display a strong phospholipase C-linked metabotropic receptor response to bradykinin, an effective pain producing agonist.
The degree of InsP3 inhibition is a function of the log of the psychosine concentration for a fixed time of exposure (FIG. 4). Exposing PC12 cells to 50 μM exogenous psychosine for 30 minutes was sufficient to reduce a metabotropic response to 10 μM bradykinin to half maximum.

cultured neurons = test: Lysosphingolipid content of cultured neurons by NBDZF fluorescence tagging; format: cell-based, chick; settings: for lysosphingolipid content, 0 hours of incubation / lysosphingolipid content, 0.5 hours of incubation / lysosphingolipid content, 1.0 hours of incubation / lysosphingolipid content, 2.0 hours of incubation / lysosphingolipid content, 3.0 hours of incubation: Intact neurons, 10 μmolar exposure; for content of sphingosine in the neurons following exposure: exposure to 50 μM lysosphingolipid, 1 hour
Text: Agonist-binding to metabotropic receptors influences the levels of lysosphingolipid in neuronal membranes. However, there is no convenient methodology available for the measurement of lysosphingolipid content in cultured neurons. As a result, a sensitive method of fluorometric tracing has been devised and is described herein. The measurement of lysosphingolipid content in cultured neurons is based on the stable fluorescence-tagging procedure using 4-fluoro, 7-nitrobenzofuran (NBDZF) described by Nozowa et al J. Neurochem. 59:607-609, 1992). The procedure was applied to: resting neurons; neurons exposed to 100 μM metabotropic receptor agonist for 1 hour; resting neurons exogenously enriched in lysosphingolipids; and neurons exogenously enriched in lysosphingolipids and exposed to metabotropic receptor agonist for 1 hour. The neurons were scraped in batches of 107 (1 Petri dish, approximately 8 cm in diameter, is equivalent to 2 mg membrane protein) and subjected to anaylsis.
Total lipids were removed from the neuron samples by repeated extraction with chloroforn:methanol (2:1, vol:vol). The lysosphingolipids were separated from total neuronal lipid in 90±5% recovery yield (n=10) by the stepped chromatographic procedure of Van Veldhoven et al. (Anal. Biochem. 183:177-189, 1989). The recovered lysosphingolipids were stably tagged with NBDZF by the rapid procedure of Nozowa et al. (supra). The fluorescence tagged neuronal lysosphingolipids were separated in parallel with reference standards NBDZF-Sph, NBDZF-Psy, and NBDZF-Lsm on high performance silica gel thin layer chromatography plates with acetonitrile:H2 O (10:0.5, vol:vol). The highly fluorescent, well separated bands were scraped from the plate. The fluorescence tagged lysosphingolipids are eluted from the scraped silica gel with methanol:1 N HCl (1:0.02, vol:vol). The fluorescence tagged lysosphingolipid eluates were quantitated against reference standards by fluorescence measurement in a Perkin-Elmer LS-5 Fluorescence Spectrometer.
Sphingolipid content of neurons exposed to sphingosine, lysocerebroside, and lysosphingomyelin was examined as follows. A Petri dish containing approximately 107 neurons was incubated with 5 μCi [^3 H]myo-Ins in 3 ml DMEM overnight to prelabel the phosphoinositide InsP3 may contain. The neurons were washed with PBS and 3 ml of PBS containing 4.5 g/l glucose was added. Preparations of sphingosine, lysocerebroside, lysosphingomyelin (Sigma Chemical Co., St. Louis, Mo.) and combinations of each were prepared as the hydrochloride salt dissolved in PBS. The lysosphingolipids were added to the Petri dishes to produce a concentration ranging from 0-150 μM. […] Trypsinization removes non-specifically bound lysosphingolipids that may adhere to extracellular plasma membrane protein domain s. Non-specific adherence between cationic micelles of lysosphingolipids and the neuronal glycocatyx avoided by performing the experiments with lysosphingolipid concentrations below the critical micelle concentration. Neurons were analyzed for lysosphingolipid content as described above.

astrocytes = settings: cited from earlier work

SMILES	InsP3 production ([1]; PC12 cells)	sensitivity of PC12 cells to bradykinin [1]	lysosphingolipid content, 0 hours of incubation (cultured neurons)	lysosphingolipid content, 0.5 hours of incubation (cultured neurons)	lysosphingolipid content, 1.0 hours of incubation (cultured neurons)	lysosphingolipid content, 2.0 hours of incubation (cultured neurons)	lysosphingolipid content, 3.0 hours of incubation (cultured neurons)	content of sphingosine in the neurons following exposure (cultured neurons)	pIC50 ([1]; PC12 cells, 30 minutes exposure, 10 μM bradykinin, read-out: exogenous concentration reducing metabotropic response to bradykinin to half maximum)	InsP3 production in astrocytes (astrocytes)	basal, unstimulated level of InsP3 production ([1]; PC12 cells)
CCCCCCCCCCCCC/C=C/[C@@H](O)[C@@H](N)COP(=O)([O-])OCC[N+](C)(C)C [lysosphingomyelin, sphingosyl phosphoryicholine]	strongly inhibit	can entirely block	–	–	–	–	–	–	–	–	–
CCCCCCCCCCCCC/C=C/[C@@H](O)[C@@H](N)CO[C@@H]1O[C@H](CO)[C@H](O)[C@H](O)[C@H]1O [psychosine, lysocerebroside]	strongly inhibit	can entirely block	25 ± 5 pmoles lysosphingolipid/mg pla	35 ± 15 pmoles lysosphingolipid/mg pla	45 ± 10 pmoles lysosphingolipid/mg pla	80 ± 5 pmoles lysosphingolipid/mg pla	80 ± 5 pmoles lysosphingolipid/mg pla	220±45 pmoles/mg protein	4.30	inhibited	–
CCCCCCCCCCCCC/C=C/[C@@H](O)[C@@H](N)CO [sphingosine]	–	–	85 ± 15 pmoles lysosphingolipid/mg pla	85 ± 20 pmoles lysosphingolipid/mg pla	110 ± 15 pmoles lysosphingolipid/mg pla	105 ± 5 pmoles lysosphingolipid/mg pla	115 ± 15 pmoles lysosphingolipid/mg pla	430±70 pmoles/mg protein	–	enhanced	tonically upregulated
